Reference: US20210170122A1, “METHOD OF WEIGHT REGULATION USING NEBULIZED NICOTINE” (priority 2016, published 2021)

Columns and labels:
[1] = remark: listed apart in the source
Description: The nicotine solution used for nicotine treatment contains 0.05 milligram of nicotine (free base) per milliliter of solution ([…]). The active mesh nebulizer activates the active mesh for a single inhalation period of 3 seconds (0.05 minute) to deliver the dose of nicotine to the patient.
The nicotine solution used for nicotine treatment contains 0.5 milligram of nicotine (free base) per milliliter of solution (0.5 mg/ml). The active mesh nebulizer activates the active mesh for a single inhalation period of 3 seconds (0.05 minute) to deliver the dose of nicotine to the patient.
The nicotine solution used for nicotine treatment contains 0.01 milligram of nicotine (free base) per milliliter of solution (0.01 mg/ml). The active mesh nebulizer activates the active mesh for a single inhalation period of 3 seconds (0.05 minute) to deliver the dose of nicotine to the patient.
The hypothetical patient receives the nicotine dose at a regular interval (e.g., about every 2 hours) for a weight monitoring period (e.g., about 2 months in the present hypothetical example), after which the hypothetical patient is weighed to determine the effect of the nebulized nicotine solution on the hypothetical patient's weight.

Compound: CN1CCCC1c1cccnc1 (stereo not shown) [nicotine]
- period with no desire for further nicotine inhalation (0.5 mg nicotine/ml (0.05%), single inhalation plume, 0.2 ml/minute for 10 seconds, according to theory and belief): 2 to 3 h
- period of nicotine satiety (no desire for further nicotine inhalation) (1/40 mg nicotine/ml (0.025% nicotine), 0.2 ml/min, nebulization time 10 seconds, according to theory and belief): at least two hours
- time to brain response (in vivo): less than 10 seconds
- management of nicotine cravings ([1]; Example 1: patient, 2-pack per day smoker, 0.0005 mg dose (0.2 ml/min, 0.05 mg/ml, 3 seconds) by inhalation approximately every two hours): sufficient to manage nicotine cravings
- patient's weight versus weight when smoking cigarettes ([1]; Example 1: patient, 2-pack per day smoker, 0.0005 mg dose by inhalation approximately every two hours): holding the patient's weight at the same level as when the patient was smoking cigarettes
- lethargy, or lassitude ([1]; Example 2: patient, 2-pack per day smoker, 0.005 mg dose (0.2 ml/min, 0.5 mg/ml, 3 seconds) by inhalation): sufficiently large to produce lethargy, or lassitude
- effect on patient's weight ([1]; Example 3: hypothetical patient, 0.01 mg/ml solution, 0.2 ml/min, 3 seconds, about every 2 hours for about 2 months): has lost weight
